Assay results published in paper PMC7044277 (Nature Communications, 2020).
Where “and” joins values, the source holds several entries; their conditions need not be identical. Equal entries are not always repeated.

How the values were obtained:
DRD2 F1103.28A [1] = target: T1, DRD2 F1103.28A (Homo sapiens, UniProt P14416, F110A); test: β-arrestin2 recruitment (Tango), mutant; type: cell-based; design: expressed in transfected cells; host or cells: HEK293T (ATCC CRL-11268)
DRD4 (D4.4 variant) = target: T2, DRD4 (D4.4 variant) (Homo sapiens, UniProt P21917); test: β-arrestin2 recruitment (Tango); type: cell-based; conditions: for Fig_S10c concentration-response source data, compound alone (replicates): agonist mode
T2 sequence (P21917 1-419): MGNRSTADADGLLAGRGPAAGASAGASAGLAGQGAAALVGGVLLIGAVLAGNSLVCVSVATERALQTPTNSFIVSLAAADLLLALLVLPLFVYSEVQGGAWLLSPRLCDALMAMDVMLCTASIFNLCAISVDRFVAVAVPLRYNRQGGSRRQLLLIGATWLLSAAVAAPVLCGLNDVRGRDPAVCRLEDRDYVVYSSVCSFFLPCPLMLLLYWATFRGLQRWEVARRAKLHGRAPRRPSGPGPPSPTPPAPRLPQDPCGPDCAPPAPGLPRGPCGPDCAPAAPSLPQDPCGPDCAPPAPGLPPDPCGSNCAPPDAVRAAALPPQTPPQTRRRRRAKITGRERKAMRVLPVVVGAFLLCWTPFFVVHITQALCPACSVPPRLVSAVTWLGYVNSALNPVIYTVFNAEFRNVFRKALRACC

DRD2 F1103.28A [2] = target: T1, DRD2 F1103.28A; type: binding; design: expressed in transfected cells; host or cells: HEK293T (ATCC CRL-11268); conditions: DRD2 F1103.28A; read-out: Ki
5HT1A = target: T3, 5HT1A (Homo sapiens, UniProt P08908); test: β-arrestin2 recruitment (Tango); type: cell-based; conditions: Fig_S10f, single replicates
T3 construct: expressed in transfected cells; host or cells: HTLA cells expressing TEV-fused β-arrestin2
T3 sequence (P08908 1-422): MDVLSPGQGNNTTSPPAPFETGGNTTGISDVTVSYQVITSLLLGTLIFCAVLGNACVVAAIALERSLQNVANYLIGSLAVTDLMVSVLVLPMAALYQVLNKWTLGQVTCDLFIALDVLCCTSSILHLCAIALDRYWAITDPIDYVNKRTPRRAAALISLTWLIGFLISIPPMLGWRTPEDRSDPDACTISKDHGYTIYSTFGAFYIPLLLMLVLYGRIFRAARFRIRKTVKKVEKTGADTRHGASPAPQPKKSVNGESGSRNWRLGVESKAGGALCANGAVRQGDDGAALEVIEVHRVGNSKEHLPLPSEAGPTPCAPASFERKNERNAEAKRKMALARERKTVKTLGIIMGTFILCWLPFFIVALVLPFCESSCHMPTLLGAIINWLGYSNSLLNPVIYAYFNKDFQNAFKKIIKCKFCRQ

[3] = target: T4, DRD4 (D4.4 variant) wild-type (Homo sapiens, UniProt P21917); test: Radioligand competition binding, [3H]-N-methylspiperone; conditions: DRD4; [3H]-methylspiperone (0.8-1.0 nM); read-out: Ki
T4 sequence (P21917 1-419): T2 sequence (P21917 1-419)

5HT1E = 5HT1E (Homo sapiens, UniProt P28566); test: β-arrestin2 recruitment (Tango); type: cell-based; conditions: Fig_S10i
Sequence of 5HT1E (P28566 whole entry): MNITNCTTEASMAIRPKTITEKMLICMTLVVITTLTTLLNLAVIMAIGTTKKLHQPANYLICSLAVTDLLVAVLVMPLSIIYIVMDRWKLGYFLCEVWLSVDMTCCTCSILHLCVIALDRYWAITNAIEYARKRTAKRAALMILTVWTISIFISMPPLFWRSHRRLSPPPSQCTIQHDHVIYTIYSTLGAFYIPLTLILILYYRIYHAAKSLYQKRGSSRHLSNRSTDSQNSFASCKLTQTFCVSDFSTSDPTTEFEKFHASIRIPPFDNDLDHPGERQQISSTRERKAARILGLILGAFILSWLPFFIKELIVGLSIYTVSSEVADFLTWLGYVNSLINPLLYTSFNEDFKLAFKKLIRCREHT

T1 sequence (P14416 whole entry F110A): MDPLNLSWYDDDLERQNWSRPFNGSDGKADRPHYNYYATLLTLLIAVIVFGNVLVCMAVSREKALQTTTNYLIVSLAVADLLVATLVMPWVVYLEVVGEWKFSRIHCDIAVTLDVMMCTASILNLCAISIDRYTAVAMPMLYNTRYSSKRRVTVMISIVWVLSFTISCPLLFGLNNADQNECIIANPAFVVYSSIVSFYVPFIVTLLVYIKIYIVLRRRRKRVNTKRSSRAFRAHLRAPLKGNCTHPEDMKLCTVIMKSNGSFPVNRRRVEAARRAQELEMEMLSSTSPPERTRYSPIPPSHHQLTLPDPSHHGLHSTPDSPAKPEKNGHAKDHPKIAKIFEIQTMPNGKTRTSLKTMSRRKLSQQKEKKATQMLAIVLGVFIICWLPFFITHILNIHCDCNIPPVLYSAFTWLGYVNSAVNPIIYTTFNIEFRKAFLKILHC

Compound: CCOc1cccc2cc([C@H](C)NCC3(O)CCCCC3)oc12 [O4SE6]
- EC50 (DRD2 F1103.28A [1]): > 10 µM
- EC50 (DRD4 (D4.4 variant); DRD4, Tango, read-out: EC50 ± SEM): > 10 µM
- Fig_S10c concentration-response source data, compound alone (replicates) (DRD4 (D4.4 variant); Log[Drug] -5): 6.217 and 2.763 and 2.001 and 1.287 and 1.775 and 4.058 and 4.003 and 0.06427 and 0.2106
- Fig_S10c concentration-response source data, compound alone (replicates) (DRD4 (D4.4 variant); Log[Drug] -5.52): 2.6039 and -1.106 and -1.946 and -0.4701 and 1.404 and 2.39 and 0.8979 and 0.0552 and 0.08381
- β-arrestin2 recruitment response at DRD4 (source data, replicate values) (DRD4 (D4.4 variant); Log[Drug] -6): 2.086
- Fig_S10c concentration-response source data, compound alone (replicates) (DRD4 (D4.4 variant); Log[Drug] -6): 3.584 and -1.188 and -0.584 and -0.6588 and 0.8796 and 1.83 and 0.7762 and 0.03516 and 0.171
- β-arrestin2 recruitment response at DRD4 (source data, replicate values) (DRD4 (D4.4 variant); Log[Drug] -6.52): 1.505 and 1.478 and 5.593 and -1.936 and -0.8155 and 0.5983 and 2.508 and 1.037 and -0.4712
- Fig_S10c concentration-response source data, compound alone (replicates) (DRD4 (D4.4 variant); Log[Drug] -6.52): 1.007 and 4.325 and 1.323 and -0.8974 and 1.527 and -0.05366 and -0.1047 and 0.03541 and 0.08444
- β-arrestin2 recruitment response at DRD4 (source data, replicate values) (DRD4 (D4.4 variant); Log[Drug] -7): 2.288 and 4.238 and 0.7634 and -1.02 and 3.3404 and -2.026 and 1.575 and 0.945 and -0.6741
- Fig_S10c concentration-response source data, compound alone (replicates) (DRD4 (D4.4 variant); Log[Drug] -7): 1.079 and -1.731 and -1.221 and -1.369 and 0.6898 and 0.678 and 1.948 and 0.1059 and 0.1355
- β-arrestin2 recruitment response at DRD4 (source data, replicate values) (DRD4 (D4.4 variant); Log[Drug] -7.52): 1.649 and 0.1326 and 3.251 and -1.741 and -0.5217 and -0.1424 and -0.5236 and 0.6819 and 0.4869
- β-arrestin2 recruitment response at DRD4 (source data, replicate values) (DRD4 (D4.4 variant); Log[Drug] -8): 0.1559 and 0.6003 and -0.215 and 3.989 and -1.66 and -2.089 and 1.626 and 2.253 and 0.1073
- β-arrestin2 recruitment response at DRD4 (source data, replicate values) (DRD4 (D4.4 variant); Log[Drug] -8.52): 0.09319 and 0.08781 and 1.238 and -1.884 and -2.01 and 2.354 and 0.733 and 0.839 and 0.1558
- β-arrestin2 recruitment response at DRD4 (source data, replicate values) (DRD4 (D4.4 variant); Log[Drug] -9): 1.025 and 0.8745 and 0.8477 and 1.633 and -1.008 and -1.74 and 1.682 and 0.09555 and 2.31
- β-arrestin2 recruitment response at DRD4 (source data, replicate values) (DRD4 (D4.4 variant); Log[Drug] -9.52): 1.007 and 1.419 and 7.892 and -0.8689 and -1.296 and 0.8476 and 1.4149 and 0.894 and 0.2094
- β-arrestin2 recruitment response at DRD4 (source data, replicate values) (DRD4 (D4.4 variant); Log[Drug] -10): 1.797 and 0.7921 and 2.561 and -1.944 and -1.43 and -2.445 and 0.6793 and 0.5811 (2×)
- β-arrestin2 recruitment response at DRD4 (source data, replicate values) (DRD4 (D4.4 variant); Log[Drug] -10.52): 1.808 and 0.4319 and 2.3763 and 1.191 and 0.9847 and -1.294 and 0.1099 and -0.2474 and -0.3547
- β-arrestin2 recruitment response at DRD4 (source data, replicate values) (DRD4 (D4.4 variant); Log[Drug] -11): 0.1559 and 1.383 and -0.06631 and 0.9882 and -1.444 and -1.642 and 1.271 and -0.5746 and 1.065
- β-arrestin2 recruitment response at DRD4 (source data, replicate values) (DRD4 (D4.4 variant); Log[Drug] -11.52): -0.1308 and 0.7778 and 1.385 and -1.934 and -1.503 and -0.7069 and -0.466 and 1.013 and -1.209
- Ki (DRD2 F1103.28A [2]): 0.52 µM
- β-arrestin2 recruitment response, agonist mode (normalized) (5HT1A; Log[Drug] -9.52): -0.8354 and -0.6725 and 0.6683 and 0.2383 and 1.852 and 0.7592 and 0.2273 and 0.7234 and 0.9859
- β-arrestin2 recruitment response, agonist mode (normalized) (5HT1A; Log[Drug] -10): 0.6642 and 0.6683 and -0.5096 and -0.1895 and -0.3206 and 1.295 and 0.9379 and 4.834 and 0.8483
- β-arrestin2 recruitment response, agonist mode (normalized) (5HT1A; Log[Drug] -10.52): 0.8312 and -0.848 and -0.5013 and 0.469 and 0.1267 and -0.3585 and 11.6165 and 0.685 and 0.3585
- β-arrestin2 recruitment response, agonist mode (normalized) (5HT1A; Log[Drug] -11): -0.188 and 0.8354 and -0.1713 and -0.4961 and -0.2339 and 0.4322 and 2.113 and 0.3457 and 0.4834
- β-arrestin2 recruitment response, agonist mode (normalized) (5HT1A; Log[Drug] -11.52): 1.3325 and -0.1754 and -0.6683 and -0.2719 and 3.032 and -0.4646 and -0.4129 and 1.767 and 1.504
- β-arrestin2 recruitment response, agonist mode (normalized) (5HT1A; Log[Drug] -12): 0.1671 and -0.9983 and -0.6683 and -0.2567 and -0.0639 and 2.424 and -0.7778 and 0.7554 and 0.3457
- Ki [3]: > 10 µM
- β-arrestin2 recruitment response, agonist mode (single replicate values) (5HT1E; Log[Drug] -5.52): 0.8358
- β-arrestin2 recruitment response, agonist mode (single replicate values) (5HT1E; Log[Drug] -6): -1.216 and -11.5535 and -10.8591 and -6.779 and -25.5686 and -12.8268 and -17.4797 and -14.3235 and -24.758
- β-arrestin2 recruitment response, agonist mode (single replicate values) (5HT1E; Log[Drug] -6.52): -5.589 and -4.67 and -2.933 and -14.8207 and -0.8192 and -17.7203 and -10.9861 and -19.449 and -21.9113
